Tests used:
[1] = molecular target: T1, Dimer of Gag-Pol polyprotein [489-587] (Human immunodeficiency virus 1, UniProt P12497); assay: Protease Inhibition Assay; conditions: pH 5.5; 22 °C
T1 construct: 489-587
Excerpt: (§1) In the presence of HIV-l protease, the substrate is rapidly cleaved into two parts. The biotinylated amino terminal fragment binds to the avidin Pandex beads while the FITC-containing carboxy1 terminal fragment is removed through the membrane.

[2] = molecular target: T2, Gag-Pol polyprotein [489-587] (Human immunodeficiency virus 1, UniProt P04585); assay: Protease Inhibition Assay
T2 construct: 489-587
Excerpt: as §1

| SMILES | IC50 [1] | IC50 [2] |
| --- | --- | --- |
| CC(C)(C)NC(=O)[C@@H]1C[C@@H]2SCC[C@@H]2CN1C[C@@H](O)[C@H](CSc1ccccc1)NC(=O)[C@@H](CS(=O)(=O)c1ccc(F)cc1)NC(=O)C(F)(F)F [(3aR,6S,7aS)-N-tert-butyl-5-[(2R,3R)-3-[(2S)-3-[(4-fluorobenzene)sulfonyl]-2-(2,2,2-trifluoroacetamido)propanamido]-2-hydroxy-4-(phenylsulfanyl)butyl]-octahydrothieno[3,2-c]pyridine-6-carboxamide] | 10 nM | 10 nM |
| CC(C)(C)NC(=O)[C@@H]1C[C@@H]2CCCC[C@@H]2CN1C[C@@H](O)[C@H](Cc1ccccc1)NC(=O)[C@@H](CSc1ccc(F)cc1)NS(C)(=O)=O [(3S,4aS,8aS)-N-tert-butyl-2-[(2R,3S)-3-[(2S)-3-[(4-fluorophenyl)sulfanyl]-2-methanesulfonamidopropanamido]-2-hydroxy-4-phenylbutyl]-decahydroisoquinoline-3-carboxamide] | 24 nM | 24 nM |
| CC(=O)N[C@H](CS(=O)(=O)c1cccc2cccnc12)C(=O)N[C@@H](Cc1ccccc1)[C@H](O)CN1C[C@H]2CCS[C@H]2C[C@H]1C(=O)NC(C)(C)C [(3aR,6S,7aS)-N-tert-butyl-5-[(2R,3S)-3-[(2S)-2-acetamido-3-(quinoline-8-sulfonyl)propanamido]-2-hydroxy-4-phenylbutyl]-octahydrothieno[3,2-c]pyridine-6-carboxamide] | 0.42 nM | 0.42 nM |
| CC(C)(C)NC(=O)[C@@H]1C[C@@H]2CCCC[C@@H]2CN1C[C@@H](O)[C@H](Cc1ccccc1)NC(=O)[C@@H](C[S+]([O-])c1ccc2ccccc2c1)NS(C)(=O)=O (some centres not stated) | 0.4 nM | 0.4 nM |
| CC(C)CN(C[C@@H](O)[C@H](Cc1ccccc1)NC(=O)[C@@H](CSc1ccc(F)cc1)NS(C)(=O)=O)C(=O)NC(C)(C)C [(2S)-N-[(2S,3R)-4-[(tert-butylcarbamoyl)(2-methylpropyl)amino]-3-hydroxy-1-phenylbutan-2-yl]-3-[(4-fluorophenyl)sulfanyl]-2-methanesulfonamidopropanamide] | 85 nM | 85 nM |
| CC(C)(C)NC(=O)[C@@H]1C[C@@H]2CCCC[C@@H]2CN1C[C@@H](O)[C@H](Cc1ccccc1)NC(=O)[C@@H](CS(=O)(=O)c1ccc(F)cc1)NS(C)(=O)=O [Saquinavir/Nelfinavir deriv.] | 2 nM | 2 nM |
| CC(C)(C)NC(=O)[C@@H]1C[C@@H]2CCCC[C@@H]2CN1C[C@@H](O)[C@H](Cc1ccccc1)NC(=O)[C@@H](CSc1ccc2ccccc2c1)NS(C)(=O)=O [(3S,4aS,8aS)-N-tert-butyl-2-[(2R,3S)-2-hydroxy-3-[(2S)-2-methanesulfonamido-3-(naphthalen-2-ylsulfanyl)propanamido]-4-phenylbutyl]-decahydroisoquinoline-3-carboxamide] | 5.1 nM | 5.1 nM |
| CC(=O)N[C@H](CSCc1ccccc1)C(=O)N[C@@H](Cc1ccccc1)[C@H](O)CN1C[C@H]2CCCC[C@H]2C[C@H]1C(=O)NC(C)(C)C [(3S,4aS,8aS)-2-[(2R,3S)-3-[(2S)-3-(benzylsulfanyl)-2-acetamidopropanamido]-2-hydroxy-4-phenylbutyl]-N-tert-butyl-decahydroisoquinoline-3-carboxamide] | 6 nM | 6 nM |
| CC(C)(C)NC(=O)[C@@H]1C[C@@H]2CCCC[C@@H]2CN1C[C@@H](O)[C@H](Cc1ccccc1)NC(=O)[C@@H](C[S+]([O-])c1ccc(F)cc1)NS(C)(=O)=O (stereo partly drawn) [(3S,4aS,8aS)-N-tert-butyl-2-[(2R,3S)-3-[(2S)-3-[(4-fluorobenzene)sulfinyl]-2-methanesulfonamidopropanamido]-2-hydroxy-4-phenylbutyl]-decahydroisoquinoline-3-carboxamide] | 0.6 nM | 0.6 nM |
| CC(C)(C)NC(=O)[C@@H]1C[C@@H]2SCC[C@@H]2CN1C[C@@H](O)[C@H](Cc1ccccc1)NC(=O)[C@@H](CS(=O)(=O)c1cccc2cccnc12)NS(C)(=O)=O [(3aR,6S,7aS)-N-tert-butyl-5-[(2R,3S)-2-hydroxy-3-[(2S)-2-methanesulfonamido-3-(quinoline-8-sulfonyl)propanamido]-4-phenylbutyl]-octahydrothieno[3,2-c]pyridine-6-carboxamide] | 0.71 nM | 0.71 nM |
| CC(C)CN(C[C@@H](O)[C@H](Cc1ccccc1)NC(=O)[C@@H](C[S+]([O-])c1ccc2ccccc2c1)NS(C)(=O)=O)C(=O)NC(C)(C)C (stereo partly drawn) [(2S)-N-[(2S,3R)-4-[(tert-butylcarbamoyl)(2-methylpropyl)amino]-3-hydroxy-1-phenylbutan-2-yl]-2-methanesulfonamido-3-(naphthalene-2-sulfinyl)propanamide] | 2.1 nM | 2.1 nM |
| CC(C)CN(C[C@@H](O)[C@H](Cc1ccccc1)NC(=O)[C@@H](CSc1ccc2ccccc2c1)NS(C)(=O)=O)C(=O)NC(C)(C)C [(2S)-N-[(2S,3R)-4-[(tert-butylcarbamoyl)(2-methylpropyl)amino]-3-hydroxy-1-phenylbutan-2-yl]-2-methanesulfonamido-3-(naphthalen-2-ylsulfanyl)propanamide] | 50 nM | 50 nM |
| CC(C)(C)NC(=O)[C@@H]1C[C@@H]2SCC[C@@H]2CN1C[C@@H](O)[C@H](CSc1ccccc1)NC(=O)[C@@H](CS(=O)(=O)c1ccc2ccccc2c1)NC(=O)C(F)(F)F [(3aR,6S,7aS)-N-tert-butyl-5-[(2R,3R)-2-hydroxy-3-[(2S)-3-(naphthalene-2-sulfonyl)-2-(2,2,2-trifluoroacetamido)propanamido]-4-(phenylsulfanyl)butyl]-octahydrothieno[3,2-c]pyridine-6-carboxamide] | 1.8 nM | 1.8 nM |
| CC(=O)N[C@H](CS(=O)(=O)c1ccc(F)cc1)C(=O)N[C@@H](CSc1ccccc1)[C@H](O)CN1C[C@H]2CCS[C@H]2C[C@H]1C(=O)NC(C)(C)C [(3aR,6S,7aS)-N-tert-butyl-5-[(2R,3R)-3-[(2S)-2-acetamido-3-[(4-fluorobenzene)sulfonyl]propanamido]-2-hydroxy-4-(phenylsulfanyl)butyl]-octahydrothieno[3,2-c]pyridine-6-carboxamide] | 1.8 nM | 1.8 nM |
| CC(=O)N[C@H](CS(=O)(=O)c1ccc2ccccc2c1)C(=O)N[C@@H](Cc1ccccc1)[C@H](O)CN1C[C@H]2CCS[C@H]2C[C@H]1C(=O)NC(C)(C)C [(3aR,6S,7aS)-N-tert-butyl-5-[(2R,3S)-3-[(2S)-2-acetamido-3-(naphthalene-2-sulfonyl)propanamido]-2-hydroxy-4-phenylbutyl]-octahydrothieno[3,2-c]pyridine-6-carboxamide] | 0.5 nM | 0.5 nM |
| CC(C)CN(C[C@@H](O)[C@H](Cc1ccccc1)NC(=O)[C@@H](CS(=O)(=O)c1ccc(F)cc1)NS(C)(=O)=O)C(=O)NC(C)(C)C [(2S)-N-[(2S,3R)-4-[(tert-butylcarbamoyl)(2-methylpropyl)amino]-3-hydroxy-1-phenylbutan-2-yl]-3-[(4-fluorobenzene)sulfonyl]-2-methanesulfonamidopropanamide] | 10 nM | 10 nM |
| CC(C)(C)NC(=O)[C@@H]1C[C@@H]2CCCC[C@@H]2CN1C[C@@H](O)[C@H](Cc1ccccc1)NC(=O)[C@@H](CS(=O)(=O)c1ccc2ccccc2c1)NS(C)(=O)=O [(3S,4aS,8aS)-N-tert-butyl-2-[(2R,3S)-2-hydroxy-3-[(2S)-2-methanesulfonamido-3-(naphthalene-2-sulfonyl)propanamido]-4-phenylbutyl]-decahydroisoquinoline-3-carboxamide] | 0.5 nM | 0.5 nM |
| CC(C)(C)NC(=O)[C@@H]1C[C@@H]2SCC[C@@H]2CN1C[C@@H](O)[C@H](Cc1ccccc1)NC(=O)[C@@H](CS(=O)(=O)c1cccc2cccnc12)NC(=O)C(F)(F)F [(3aR,6S,7aS)-N-tert-butyl-5-[(2R,3S)-2-hydroxy-4-phenyl-3-[(2S)-3-(quinoline-8-sulfonyl)-2-(2,2,2-trifluoroacetamido)propanamido]butyl]-octahydrothieno[3,2-c]pyridine-6-carboxamide] | 0.21 nM | 0.21 nM |
| CC(=O)N[C@H](CS(=O)(=O)c1cccc2cccnc12)C(=O)N[C@@H](Cc1ccccc1)[C@H](O)CN1C[C@H]2CCCC[C@H]2C[C@H]1C(=O)NC(C)(C)C [(3S,4aS,8aS)-N-tert-butyl-2-[(2R,3S)-3-[(2S)-2-acetamido-3-(quinoline-8-sulfonyl)propanamido]-2-hydroxy-4-phenylbutyl]-decahydroisoquinoline-3-carboxamide] | 1.7 nM | 1.7 nM |
| CC(=O)N[C@H](CS(=O)(=O)c1ccc2ccccc2c1)C(=O)N[C@@H](Cc1ccccc1)[C@H](O)CN1C[C@H]2CCCC[C@H]2C[C@H]1C(=O)NC(C)(C)C [(3S,4aS,8aS)-N-tert-butyl-2-[(2R,3S)-3-[(2S)-2-acetamido-3-(naphthalene-2-sulfonyl)propanamido]-2-hydroxy-4-phenylbutyl]-decahydroisoquinoline-3-carboxamide] | 1.6 nM | 1.6 nM |
| CC(C)(C)NC(=O)[C@@H]1C[C@@H]2SCC[C@@H]2CN1C[C@@H](O)[C@H](Cc1ccccc1)NC(=O)[C@@H](CS(=O)(=O)c1ccc(F)cc1)NS(C)(=O)=O [(3aR,6S,7aS)-N-tert-butyl-5-[(2R,3S)-3-[(2S)-3-[(4-fluorobenzene)sulfonyl]-2-methanesulfonamidopropanamido]-2-hydroxy-4-phenylbutyl]-octahydrothieno[3,2-c]pyridine-6-carboxamide] | 0.22 nM | 0.22 nM |

Reference: BindingDB's records for doi:10.7270/Q22F7KMG (Eli Lilly, 1995)
